From US9102648B1, “Bioavailable diacylhydrazine ligands for modulating the expression of exogenous genes via an ecdysone receptor complex” (Intrexon Corporation, priority 2003, dated 2015)

What was measured:
[1] = test system: mutated ecdysone receptor-based gene switch; assay: In vivo SEAP induction, ligand by IP injection; set-up: species or system C57BL/6 mouse; conditions: for Secreted Alkaline Phosphatase (percentage of GS ™-E ligand induction) Day 2 / Secreted Alkaline Phosphatase (percentage of GS ™-E ligand induction) Day 3 / Secreted Alkaline Phosphatase (percentage of GS ™-E ligand induction) Day 11: mouse serum; for Secreted Alkaline Phosphatase (percentage of GS ™-E ligand induction) Day 2: IP 2.6 μmol ligand 3 days after electroporation, day 2 after ligand; for Secreted Alkaline Phosphatase (percentage of GS ™-E ligand induction) Day 3 / Secreted Alkaline Phosphatase (percentage of GS ™-E ligand induction) Day 11: IP 2.6 μmol ligand; for Secreted Alkaline Phosphatase (percentage of GS ™-E ligand induction) Day 3: day 3 after ligand; for Secreted Alkaline Phosphatase (percentage of GS ™-E ligand induction) Day 11: day 11 after ligand; for Secreted Alkaline Phosphatase Day 2 / Secreted Alkaline Phosphatase Day 3 / Secreted Alkaline Phosphatase Day 7: IP 26 nmol ligand
Description: Applicants' ligands are useful in various applications including gene therapy, expression of proteins of interest in host cells, production of transgenic organisms, and cell-based assays. In vivo induction of a reporter enzyme with various ligands of the present invention was evaluated in a C57BL/6 mouse model system containing a gene switch.
Each element of the gene switch was on a separate plasmid. Receptor expression was under the control of a CMV promoter (SEQ ID NO: 15). Induction was evaluated by the amount of reporter protein expressed in the presence of ligand.
SEAP expression in serum of mice was evaluated after electroporation of the gene switch into mouse quadriceps. Mice were anesthetized with 2 μL/g of a mixture of ketamine (100 mg/mL) and xylazine (20 mg/mL). Animals were then shaved, DNA vectors injected into the muscle in a volume of 2×50 μL polyglutamic acid (12 mg/mL water), electrode conductivity gel applied, and an electrode caliber (1 cm×1 cm; model 384) was placed on hind leg. The muscle was electroporated with 200 V/cm, 8 times, for 20 msec/pulse, at 1 sec time intervals. The transverse electrical field direction was reversed after the animals received half of the pulses. Electroporation was performed with an ECM 830 electroporator from BTX Molecular Delivery Systems.
In some experiments mice received an intraperitoneal injection (IP) of 2.6 μmol of ligand in 50 μL of DMSO 3 days after electroporation of the gene switch. In other experiments the concentration of ligand was decrease to 26 nmol/50 μL of DMSO/mouse. SEAP expression was evaluated 2-11 days after ligand administration. In other experiments ligand was administered in rodent chow. The chow was prepared by dissolving 2 g of ligand in 20 mL of acetone and adding it to 1 kg of LabDiet 5010 autoclavable chow from Purina Mills. This was thoroughly mixed in a Hobart mixer and then mixed for an additional 15 min in a Cross Blend mixer. Animals received chow ad libitum for 1, 2, or 3 days. All values are the average from four animals. Background SEAP in sera from animals treated with vector alone without ligand addition was 0-11 ng/mL serum.
Mouse serum was obtained by centrifugation of blood acquired by retroorbital bleeding with a small glass capillary tube. SEAP quantification was determined using a Clontech Great Escape chemiluminescence kit and by comparison with the Clontech SEAP standard.
Table 9: In vivo evaluation of ligand-mediated induction of a mutated ecdysone receptor-based gene switch. SEAP expression in serum of mice was evaluated after electroporation of the gene expression cassettes into mouse quadriceps. Mice received an IP injection of 2.6 μmol of ligand 3 days after electroporation. SEAP expression was evaluated 2-11 days after ligand administration. Each dose group was composed of four animals. Percentage of GS™-E ligand induction was determined by averaging SEAP expression from four animals divided by the average SEAP expression induced with GS™-E ligand and then multiplying by 100.
Table 10: Induction of gene switch expression with low concentrations of ligand. SEAP expression in serum of mice was evaluated after electroporation of the gene expression cassettes into mouse quadriceps. Mice received an IP injection of 26 nmol of ligand or 130 nmol GS™-E ligand 3 days after electroporation. SEAP expression was evaluated 2-7 days after ligand administration. Values are the average from 4 animals.

[2] = Determination of LC Log P (experimental); format: physicochemical; conditions: for chromatographic logP: read-out: LC LogP (exp)
Description: Liquid chromatography retention times (RT) are measured for each substance using the conditions described below. A linear equation is derived relating RT to log P is developed from the data for the log P standards. The log P for the test compound is calculated from the log P/retention time equation.

[3] = from LC retention time against log P standards

## CCCC(N(NC(=O)c1cccc(OC)c1C)C(=O)c1cc(OC)c(C)c(OC)c1)C(C)(C)C (centres unmarked) [RG-115824]
[1]
  Secreted Alkaline Phosphatase (percentage of GS ™-E ligand induction) Day 2: 102 percentage of GS ™-E ligand induction
  Secreted Alkaline Phosphatase (percentage of GS ™-E ligand induction) Day 3: 101 percentage of GS ™-E ligand induction
  Secreted Alkaline Phosphatase (percentage of GS ™-E ligand induction) Day 11: 415 percentage of GS ™-E ligand induction

## CCC(N(NC(=O)c1cccc(OC)c1C)C(=O)c1cc(OC)c(C)c(OC)c1)C(C)(C)C (centres unmarked) [RG-115820, 3,5-dimethoxy-4-methyl-benzoic acid N-(1-ethyl-2,2-dimethyl-propyl)-N′-(3-methoxy-2-methyl-benzoyl)-hydrazide]
[1]
  Secreted Alkaline Phosphatase (percentage of GS ™-E ligand induction) Day 2: 82 percentage of GS ™-E ligand induction
  Secreted Alkaline Phosphatase (percentage of GS ™-E ligand induction) Day 3: 63 percentage of GS ™-E ligand induction
  Secreted Alkaline Phosphatase (percentage of GS ™-E ligand induction) Day 11: 399 percentage of GS ™-E ligand induction

## CCc1c(OC)cccc1C(=O)NN(C(=O)c1cc(OC)c(C)c(OC)c1)C(CC)C(C)(C)C (centres unmarked) [RG-115831]
[1]
  Secreted Alkaline Phosphatase (percentage of GS ™-E ligand induction) Day 2: 118 percentage of GS ™-E ligand induction
  Secreted Alkaline Phosphatase (percentage of GS ™-E ligand induction) Day 3: 121 percentage of GS ™-E ligand induction
  Secreted Alkaline Phosphatase (percentage of GS ™-E ligand induction) Day 11: 105 percentage of GS ™-E ligand induction

## CCC(N(NC(=O)c1cccc(OC)c1C)C(=O)c1cc(C)cc(C)c1)C(C)(C)C (centres unmarked) [RG-115819, 3,5-dimethyl-benzoic acid N-(1-ethyl-2,2-dimethyl-propyl)-N′-(3-methoxy-2-methyl-benzoyl)-hydrazide]
[1]
  Secreted Alkaline Phosphatase Day 2: 5,984 ng/ml mouse sera
  Secreted Alkaline Phosphatase Day 3: 4,096 ng/ml mouse sera
  Secreted Alkaline Phosphatase Day 7: 453 ng/ml mouse sera
  Secreted Alkaline Phosphatase (percentage of GS ™-E ligand induction) Day 2: 172 percentage of GS ™-E ligand induction
  Secreted Alkaline Phosphatase (percentage of GS ™-E ligand induction) Day 3: 215 percentage of GS ™-E ligand induction
  Secreted Alkaline Phosphatase (percentage of GS ™-E ligand induction) Day 11: 3,008 percentage of GS ™-E ligand induction

## CC(C)(C)N(NC(=O)c1ccc(Cl)cc1)C(=O)c1ccccc1 [RG-100864]
[2]; diacylhydrazine log P standards (log P known experimentally)
  logP: 3.2

## CCCC(N(NC(=O)c1cccc(OC)c1CC)C(=O)c1cc(OC)c(C)c(OC)c1)C(C)(C)C (centres unmarked) [RG-115829, 3,5-Dimethoxy-4-methyl-benzoic acid N-(1-tert-butyl-butyl)-N′-(2-ethyl-3-methoxy-benzoyl)-hydrazide]
[1]
  Secreted Alkaline Phosphatase (percentage of GS ™-E ligand induction) Day 2: 72 percentage of GS ™-E ligand induction
  Secreted Alkaline Phosphatase (percentage of GS ™-E ligand induction) Day 3: 83 percentage of GS ™-E ligand induction
  Secreted Alkaline Phosphatase (percentage of GS ™-E ligand induction) Day 11: 687 percentage of GS ™-E ligand induction

## CCc1c(OC)cccc1C(=O)NN(C(=O)c1cc(C)cc(C)c1)C(CC)C(C)(C)C (centres unmarked) [RG-115832]
[1]
  Secreted Alkaline Phosphatase Day 2: 2,349 ng/ml mouse sera
  Secreted Alkaline Phosphatase Day 3: 1,807 ng/ml mouse sera
  Secreted Alkaline Phosphatase Day 7: 149 ng/ml mouse sera
  Secreted Alkaline Phosphatase (percentage of GS ™-E ligand induction) Day 2: 147 percentage of GS ™-E ligand induction
  Secreted Alkaline Phosphatase (percentage of GS ™-E ligand induction) Day 3: 189 percentage of GS ™-E ligand induction
  Secreted Alkaline Phosphatase (percentage of GS ™-E ligand induction) Day 11: 4,183 percentage of GS ™-E ligand induction

## CCc1c(C(=O)NN(C(=O)c2cc(C)cc(Cl)c2)C(C)(C)C)ccc2c1OCCO2 [RG-101494, N-(5-ethyl-1,4-benzodioxan-6-carbonyl)-N′-(tert-butyl)-N′-(3-chloro-5-methylbenzoyl)hydrazine]
[2]; [3]
  chromatographic logP: 4.3
[1]
  Secreted Alkaline Phosphatase (percentage of GS ™-E ligand induction) Day 2: 136 percentage of GS ™-E ligand induction
  Secreted Alkaline Phosphatase (percentage of GS ™-E ligand induction) Day 3: 138 percentage of GS ™-E ligand induction

## CCc1c(OC)cccc1C(=O)NN(C(=O)c1cc(C)cc(C=NNC(=O)C(N)=O)c1)C(C)(C)C [RG-115613, oxamic hydrazone of N-(3-formyl-5-methyl-benzoyl)-N-tert-butyl-N′-(2-ethyl-3-methoxy-benzoyl) hydrazide]
[2]; [3]
  LC LogP (exp): 2.8
[1]
  Secreted Alkaline Phosphatase (percentage of GS ™-E ligand induction) Day 2: 2 percentage of GS ™-E ligand induction
  Secreted Alkaline Phosphatase (percentage of GS ™-E ligand induction) Day 3: 1 percentage of GS ™-E ligand induction

## COc1cccc(C(=O)NN(C(=O)c2cc(Cl)c(F)c(Cl)c2)C(C)(C)C)c1C [RG-101382, N-(3-methoxy-2-methylbenzoyl)-N′-(3,5-dichloro-4-fluorobenzoyl)-N′-tert-butylhydrazine]
[2]; [3]
  chromatographic logP: 4.4
[1]
  Secreted Alkaline Phosphatase (percentage of GS ™-E ligand induction) Day 2: 92 percentage of GS ™-E ligand induction
  Secreted Alkaline Phosphatase (percentage of GS ™-E ligand induction) Day 3: 81 percentage of GS ™-E ligand induction
  Secreted Alkaline Phosphatase (percentage of GS ™-E ligand induction) Day 11: 890 percentage of GS ™-E ligand induction

## CCCC(N(NC(=O)c1cccc(OC)c1CC)C(=O)c1cc(C)cc(C)c1)C(C)(C)C (centres unmarked) [RG-115830]
[1]
  Secreted Alkaline Phosphatase Day 2: 6,835 ng/ml mouse sera
  Secreted Alkaline Phosphatase Day 3: 5,339 ng/ml mouse sera
  Secreted Alkaline Phosphatase Day 7: 590 ng/ml mouse sera
  Secreted Alkaline Phosphatase (percentage of GS ™-E ligand induction) Day 2: 120 percentage of GS ™-E ligand induction
  Secreted Alkaline Phosphatase (percentage of GS ™-E ligand induction) Day 3: 158 percentage of GS ™-E ligand induction
  Secreted Alkaline Phosphatase (percentage of GS ™-E ligand induction) Day 11: 3,558 percentage of GS ™-E ligand induction

## COc1cc(C(=O)N(NC(=O)c2ccc3c(c2C)OCCO3)C(C)(C)C#N)cc(OC)c1C [RG-115092, N-(5-methyl-1,4-benzodioxan-6-carbonyl)-N′-(2-cyano-2-propyl)-N′-(3,5-dimethoxy-4-methylbenzoyl)hydrazine]
[2]; [3]
  chromatographic logP: 3.5
[1]
  Secreted Alkaline Phosphatase (percentage of GS ™-E ligand induction) Day 2: 8 percentage of GS ™-E ligand induction
  Secreted Alkaline Phosphatase (percentage of GS ™-E ligand induction) Day 3: 2 percentage of GS ™-E ligand induction
